The values that follow come from patent publication US10172355B2, “Safened herbicidal compositions including 4-amino-3-chloro-5-fluoro-6-(4-chloro-2-fluoro-3-methoxyphenyl)pyridine-2-carboxylic acid or a derivative thereof for use in rice” (Dow AgroSciences LLC, priority 2012, dated 2019).

SMILES strings stand for the structures. Like-named read-outs stand apart in the source and are kept apart here.

One experiment deals with ORYSA=Orysa sativa, Rice. Put plainly: Postemergence foliar-applied herbicides and safeners in direct-seeded rice, visual injury. The format is in vivo. Conditions: foliar; for Visual Injury (%) - 21 DAA ORYSA-‘Clearfield 171’ Obs / Visual Injury (%) - 21 DAA ORYSA-‘Neptune’ Obs / Visual Injury (%) - 21 DAA ORYSA-‘Wells’ Obs: Tables 1,2,7,8; for Visual crop injury (%) at 140 g/ha / Visual crop injury (%) at 280 g/ha: Oryza sativa, 480 h, read-out: Visual Injury (%) - 20 DAA ORYSA-‘Clearfield 171’ Obs. The source says: (§1) Seeds or nutlets of the desired test plant species were planted in a soil matrix prepared by mixing a loam or sandy loam soil (e.g., 28.6 percent silt, 18.8 percent clay, and 52.6 percent sand, with a pH of about 5.8 and an organic matter content of about 1.8 percent) and calcareous grit in an 80 to 20 ratio. The soil matrix was contained in plastic pots with a surface area of 84.6 square centimeters (cm^2). When required to ensure good germination and healthy plants, a fungicide treatment and/or other chemical or physical treatment was applied. The plants were grown for 8-22 days in a greenhouse with an approximate 14 hr photoperiod which was maintained at about 29° C. during the day and 26° C. during the night. Nutrients (Peters Excel 15-5-15 5-Ca 2-Mg and iron chelate) were applied in the irrigation solution as needed and water was added on a regular basis. Supplemental lighting was provided with overhead metal halide 1000-Watt lamps as necessary. The plants were employed for testing when they reached the second or third true leaf stage.
(§2) Treatments consisted of the acid or esters of 4-amino-3-chloro-5-fluoro-6-(4-chloro-2-fluoro-3-methoxy-phenyl)pyridine-2-carboxylic acid (compound A) and various safener components alone and in combination. Forms of compound A were applied on an acid equivalent basis. Safener components were applied on an active ingredient or acid equivalent basis depending on the compound.
(§3) Treatment requirements were calculated based upon the rates being tested, the concentration of active ingredient or acid equivalent in the formulation, and a 12 mL application volume at a rate of 187 L/ha.
(§4) For treatments comprised of formulated compounds, measured amounts of compounds were placed individually in 25 mL glass vials and diluted in a volume of 1.25% (v/v) Agri-dex crop oil concentrated to obtain 12× stock solutions. […] Application solutions were prepared by adding an appropriate amount of each stock solution (e.g., 1 mL) and diluted to the appropriate final concentrations with the addition of 10 mL of an aqueous mixture of 1.25% (v/v) Agri-dex crop oil concentrate so that the final spray solutions contained 1.25% (v/v) Agri-dex crop oil concentrate.
(§5) For treatments comprised of technical compounds, weighed amounts were placed individually in 25 mL glass vials and dissolved in a volume of 97:3 v/v acetone/DMSO to obtain 12× stock solutions. […] Application solutions were prepared by adding an appropriate amount of each stock solution (e.g., 1 mL) and diluted to the appropriate final concentrations with the addition of 10 mL of an aqueous mixture of 1.5% (v/v) Agri-dex crop oil concentrate so that the final spray solutions contained 1.25% (v/v) Agri-dex crop oil concentrate. When technical materials were used, the concentrated stock solutions were added to the spray solutions so that the final acetone and DMSO concentrations of the application solutions were […], respectively.
(§6) For treatments comprised of formulated and technical compounds, weighed amounts of the technical materials were placed individually in 25 mL glass vials and dissolved in a volume of 97:3 v/v acetone/DMSO to obtain 12× stock solutions, and measured amounts of the formulated compounds were placed individually in 25 mL glass vials and diluted in a volume of 1.5% (v/v) Agri-dex crop oil concentrate or water to obtain 12× stock solutions. […] Application solutions were prepared by adding an appropriate amount of each stock solution (e.g., 1 mL) and diluted to the appropriate final concentrations with the addition of an appropriate amount of an aqueous mixture of 1.5% (v/v) Agri-dex crop oil concentrate so that the final spray solutions contained 1.25% (v/v) Agri-dex crop oil concentrate. When required, additional water and/or 97:3 v/v acetone/DMSO was added to individual application solutions so that the final acetone and DMSO concentrations of the application solutions being compared were 8.1% and 0.25%, respectively. […]

The test system of experiment [1] is ECHCG=Echinochloa crus-galli. Put plainly: Postemergence foliar-applied herbicides and safeners, visual injury of weed. The format is in vivo. The conditions noted are these: foliar; for pest or weed control at 280 g/ha / pest or weed control at 140 g/ha: Echinochloa crus-galli, 480 h, read-out: Visual Injury (%) - 20 DAA ECHCG Obs.
Description: as §1, §2, §3, §4, §5, §6

[2] abbreviates: safener 280 g ai/ha alone, trial of Tables 3,4,6,10,12,14.
The mark [3] stands for this setting: safener 140 g ai/ha alone, trial of Tables 3,4,6,10,12,14.
Setting [4] is: safener 280 g ai/ha alone, trial of Tables 5,9,11,13.
[5] abbreviates: safener 140 g ai/ha alone, trial of Tables 5,9,11,13.

On to `CCCCCC(C)OC(=O)COc1ccc(Cl)c2cccnc12` (centres unmarked) [Cloquintocet-mexyl], for which the “Visual Injury (%) - 21 DAA ORYSA-‘Clearfield 171’ Obs” value came to 0% in the experiment with ORYSA=Orysa sativa, Rice (safener 70 g ai/ha alone) and 0% in the experiment on ORYSA=Orysa sativa, Rice (safener 140 g ai/ha alone). The “Visual Injury (%) - 21 DAA ORYSA-‘Neptune’ Obs” value with ORYSA=Orysa sativa, Rice (safener 70 g ai/ha alone) came to 0%; in the experiment with ORYSA=Orysa sativa, Rice (safener 140 g ai/ha alone) it was 0%; in the experiment with ORYSA=Orysa sativa, Rice (safener 280 g ai/ha alone), 0%. The “Visual Injury (%) - 21 DAA ORYSA-‘Wells’ Obs” value in the experiment with ORYSA=Orysa sativa, Rice (safener 70 g ai/ha alone) stood at 0%; in the experiment on ORYSA=Orysa sativa, Rice (safener 140 g ai/ha alone) it was 0%; with ORYSA=Orysa sativa, Rice (safener 280 g ai/ha alone), 0%.

In the case of `Cc1ccc(NC(=O)NC(C)(C)c2ccccc2)cc1` [Daimuron, N-(4-methylphenyl)-N′-(1-methyl-1-phenylethyl)-urea], in the experiment with ORYSA=Orysa sativa, Rice (safener 70 g ai/ha alone), the “Visual Injury (%) - 21 DAA ORYSA-‘Clearfield 171’ Obs” value is recorded as 0%, the “Visual Injury (%) - 21 DAA ORYSA-‘Neptune’ Obs” value was determined as 0% and the “Visual Injury (%) - 21 DAA ORYSA-‘Wells’ Obs” value is 0%. Further, in the experiment with ORYSA=Orysa sativa, Rice (safener 140 g ai/ha alone), the “Visual Injury (%) - 21 DAA ORYSA-‘Clearfield 171’ Obs” value came to 0%, the “Visual Injury (%) - 21 DAA ORYSA-‘Neptune’ Obs” value amounted to 0% and the “Visual Injury (%) - 21 DAA ORYSA-‘Wells’ Obs” value was 0%. Besides, in the experiment with ORYSA=Orysa sativa, Rice (safener 280 g ai/ha alone), the “Visual Injury (%) - 21 DAA ORYSA-‘Neptune’ Obs” value was determined as 0% and the “Visual Injury (%) - 21 DAA ORYSA-‘Wells’ Obs” value stood at 0%.

With `C=CCN(CC=C)C(=O)C(Cl)Cl` [Dichlormid, N,N-diallyl-2,2-dichloroacetamide], the pest or weed control at 280 g/ha in experiment [1] (setting [2]) worked out at 0%. Besides, in the experiment with ORYSA=Orysa sativa, Rice (setting [3]), the Visual crop injury (%) at 140 g/ha is 0%. Also, the Visual crop injury (%) at 280 g/ha in the experiment with ORYSA=Orysa sativa, Rice (setting [2]) stood at 0%.

Take `CC1(C)CN2C(=O)CCC2(C)N(C(=O)C(Cl)Cl)C1` (centres unmarked) [Dicyclonon]: the “Visual Injury (%) - 20 DAA ECHCG Obs” value in experiment [1] (setting [2]) was determined as 0%; in experiment [1] (setting [4]) it was 3%. Further, the “Visual Injury (%) - 20 DAA ORYSA-‘Clearfield 171’ Obs” value with ORYSA=Orysa sativa, Rice (setting [3]) was 0%; in the experiment with ORYSA=Orysa sativa, Rice (setting [5]), 0%; in the experiment on ORYSA=Orysa sativa, Rice (setting [2]) it was 3%; in the experiment on ORYSA=Orysa sativa, Rice (setting [4]), 0%.

Regarding `CC(C)(SC(=O)N1CCCCC1)c1ccccc1` [Dimepiperate, S-(1-methyl-1-phenylethyl)1-piperidine-carbothioate, reference compound], in experiment [1] (setting [3]), the pest or weed control at 140 g/ha amounted to 0%. Also, the pest or weed control at 280 g/ha in experiment [1] (setting [2]) came to 0%. In addition, in the experiment on ORYSA=Orysa sativa, Rice (setting [3]), the Visual crop injury (%) at 140 g/ha was 7%. For the same compound, the Visual crop injury (%) at 280 g/ha with ORYSA=Orysa sativa, Rice (setting [2]) was 3%.

In the case of `Clc1cc(Cl)nc(-c2ccccc2)n1` [Fenclorim, 4,6-dichloro-2-phenylpyrimidine, reference compound], in experiment [1] (setting [5]), the pest or weed control at 140 g/ha is 0%. Further, the pest or weed control at 280 g/ha in experiment [1] (setting [4]) amounted to 0%. For the same compound, the “Visual Injury (%) - 20 DAA ECHCG Obs” value in experiment [1] (setting [3]) and in experiment [1] (setting [2]) was 0% throughout. Also, the Visual crop injury (%) at 140 g/ha in the experiment with ORYSA=Orysa sativa, Rice (setting [3]) was 0%; in the experiment on ORYSA=Orysa sativa, Rice (setting [5]), 0%. Besides, the Visual crop injury (%) at 280 g/ha is 0% in the experiment with ORYSA=Orysa sativa, Rice (setting [2]) and 0% in the experiment with ORYSA=Orysa sativa, Rice (setting [4]).

Turning to `CC1(C)OC(c2ccco2)CN1C(=O)C(Cl)Cl` (centres unmarked) [Furilazole, 3-(dichloroacetyl)-5-(2-furanyl)-2,2-dimethyl-oxazolidine, reference compound], the pest or weed control at 140 g/ha in experiment [1] (setting [5]) turned out to be 0%. Besides, the pest or weed control at 280 g/ha in experiment [1] (setting [4]) was 0%. Also, the “Visual Injury (%) - 20 DAA ECHCG Obs” value in experiment [1] (setting [3]) and in experiment [1] (setting [2]) was 0% in each case. Besides, the Visual crop injury (%) at 140 g/ha is 7% in the experiment with ORYSA=Orysa sativa, Rice (setting [3]) and 0% in the experiment on ORYSA=Orysa sativa, Rice (setting [5]). Further, the Visual crop injury (%) at 280 g/ha came to 18% with ORYSA=Orysa sativa, Rice (setting [2]) and 0% with ORYSA=Orysa sativa, Rice (setting [4]).

Consider `O=C1OC(=O)c2cccc3cccc1c23` [Naphthalic anhydride, 1H,3H-naphtho[1,8-cd]pyran-1,3-dione, reference compound], for which the pest or weed control at 140 g/ha in experiment [1] (setting [5]) was 0%. In addition, the pest or weed control at 280 g/ha in experiment [1] (setting [4]) was determined as 0%. For the same compound, the “Visual Injury (%) - 20 DAA ECHCG Obs” value in experiment [1] (setting [3]) and in experiment [1] (setting [2]) was 0% in each case. The Visual crop injury (%) at 140 g/ha worked out at 0% in the experiment with ORYSA=Orysa sativa, Rice (setting [3]) and 0% with ORYSA=Orysa sativa, Rice (setting [5]). In addition, the Visual crop injury (%) at 280 g/ha in the experiment on ORYSA=Orysa sativa, Rice (setting [2]) was 0%; in the experiment on ORYSA=Orysa sativa, Rice (setting [4]), 3%.
